Measured values: patent US7504400B2, “MTP inhibiting aryl piperydines or piperazines substituted with 5-membered heterocycles” (Janssen Pharmaceutica N.V., priority 2004, dated 2009)

Tested on: Secretion of ApoB
Test: Quantification of the secretion of ApoB in HepG2 cells
Format: cell-based
Conditions: Homo sapiens, HepG2, 24 h, 24 hours of incubation with test compound, immunoprecipitation of apoB from medium, read-out: pIC50 value (=-log IC50 value), secretion of ApoB (converted)
Outline: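 At 70% confluency, HepG2 cells in MEM with 10% FCS received compound or DMSO carrier (0.4% final) for 24 h. Secreted apoB in cleared medium immunoprecipitated with sheep anti-apoB then rabbit anti-sheep antibody (24 h each, 8° C); pellet radioactivity counted by liquid scintillation; IC50 expressed as pIC50.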

Structure (SMILES)	IC50 [nM]
CCOC(=O)C(c1ccccc1)N1CCC(c2ccc(-n3ccn([C@H](C)c4ccccc4)c3=O)cc2)CC1 (stereo partly drawn) [Compound 227]	31.6 to 316
CCOC(=O)C(c1ccccc1)N1CCC(c2ccc(-n3ccn([C@@H](C)c4ccccc4)c3=O)cc2)CC1 (stereo partly drawn) [Compound 228]	316 to 3160
CCOC(=O)C(c1ccccc1)N1CCC(c2ccc(-n3ccn([C@H](C)c4ccc(Br)cc4)c3=O)cc2)CC1 (stereo partly drawn) [Compound 229]	31.6 to 316
CCOC(=O)C(c1ccccc1)N1CCC(c2ccc(-n3ccn([C@@H](C)c4ccc(Br)cc4)c3=O)cc2)CC1 (stereo partly drawn) [Compound 230]	316 to 3160
CCOC(=O)C(c1ccccc1)N1CCC(c2ccc(-n3ccn([C@@H](C)c4ccc5ccccc5c4)c3=O)cc2)CC1 (stereo partly drawn) [Compound 231]	316 to 3160
CCOC(=O)C(c1ccccc1)N1CCC(c2ccc(-n3ccn([C@H](C)c4ccc5ccccc5c4)c3=O)cc2)CC1 (stereo partly drawn) [Compound 232]	31.6 to 316
CCOC(=O)C(c1ccccc1)N1CCC(c2ccc(-n3ccn([C@H](C)c4ccc(C)cc4)c3=O)cc2)CC1 (stereo partly drawn) [Compound 233]	31.6 to 316
CCOC(=O)C(c1ccccc1)N1CCC(c2ccc(-n3ccn([C@@H](C)c4ccc(C)cc4)c3=O)cc2)CC1 (stereo partly drawn) [Compound 234]	316 to 3160
CCOC(=O)C(c1ccccc1)N1CCC(c2ccc(-n3ccn([C@H](C)c4ccc(Cl)cc4)c3=O)cc2)CC1 (stereo partly drawn) [Compound 235]	31.6 to 316
CCOC(=O)C(c1ccccc1)N1CCC(c2ccc(-n3ccn([C@@H](C)c4ccc(Cl)cc4)c3=O)cc2)CC1 (stereo partly drawn) [Compound 236]	316 to 3160
CCOC(=O)C(c1ccccc1)N1CCC(c2ccc(-n3ccn([C@H](C)c4cccc(OC)c4)c3=O)cc2)CC1 (stereo partly drawn) [Compound 237]	31.6 to 316
CCOC(=O)C(c1ccccc1)N1CCC(c2ccc(-n3ccn([C@@H](C)c4cccc(OC)c4)c3=O)cc2)CC1 (stereo partly drawn) [Compound 238]	316 to 3160
CCOC(=O)C(c1ccccc1)N1CCC(c2ccc(-n3ccn([C@H](COC)c4ccccc4)c3=O)cc2)CC1 (stereo partly drawn) [Compound 239]	316 to 3160
CCOC(=O)C(c1ccccc1)N1CCC(c2ccc(-n3ccn([C@@H](COC)c4ccccc4)c3=O)cc2)CC1 (stereo partly drawn) [Compound 240]	316 to 3160
CCOC(=O)C(c1ccccc1)N1CCC(c2ccc(-n3ccn([C@@H](C)C4CCCCC4)c3=O)cc2)CC1 (stereo partly drawn) [Compound 241]	316 to 3160
CCOC(=O)C(c1ccccc1)N1CCC(c2ccc(-n3ccn(C(CC)c4ccccc4)c3=O)cc2)CC1 (stereo not drawn) [Compound 242]	31.6 to 316
CCOC(=O)C(c1ccccc1)C1CCN(c2ccc(-n3ccn([C@@H](C)c4ccc(F)cc4)c3=O)cc2)CC1 (stereo partly drawn) [Compound 243]	316 to 3160

Structure (SMILES)	IC50 [nM]
CCOC(=O)C(c1ccccc1)C1CCN(c2ccc(-n3ccn([C@H](C)c4ccc(F)cc4)c3=O)cc2)CC1 (stereo partly drawn) [Compound 244]	31.6 to 316
CCOC(=O)C(c1ccccc1)C1CCN(c2ccc(-n3ccn([C@H](C)c4cccc5ccccc45)c3=O)cc2)CC1 (stereo partly drawn) [Compound 245]	316 to 3160
CCOC(=O)C(c1ccccc1)C1CCN(c2ccc(-n3ccn([C@@H](C)c4cccc5ccccc45)c3=O)cc2)CC1 (stereo partly drawn) [Compound 246]	316 to 3160
CCOC(=O)C(c1ccccc1)C1CCN(c2ccc(-n3ccn([C@H](C)c4ccccc4)c3=O)cc2)CC1 (stereo partly drawn) [Compound 247]	31.6 to 316
CCOC(=O)C(c1ccccc1)C1CCN(c2ccc(-n3ccn([C@@H](C)c4ccccc4)c3=O)cc2)CC1 (stereo partly drawn) [Compound 248]	316 to 3160
CCOC(=O)C(c1ccccc1)C1CCN(c2ccc(-n3ccn([C@H](C)c4ccc(Br)cc4)c3=O)cc2)CC1 (stereo partly drawn) [Compound 249]	31.6 to 316
CCOC(=O)C(c1ccccc1)C1CCN(c2ccc(-n3ccn([C@@H](C)c4ccc(Br)cc4)c3=O)cc2)CC1 (stereo partly drawn) [Compound 250]	316 to 3160
CCOC(=O)C(c1ccccc1)C1CCN(c2ccc(-n3ccn([C@@H](C)c4ccc5ccccc5c4)c3=O)cc2)CC1 (stereo partly drawn) [Compound 251]	316 to 3160
CCOC(=O)C(c1ccccc1)C1CCN(c2ccc(-n3ccn([C@H](C)c4ccc5ccccc5c4)c3=O)cc2)CC1 (stereo partly drawn) [Compound 252]	316 to 3160
CCOC(=O)C(c1ccccc1)C1CCN(c2ccc(-n3ccn([C@H](C)c4ccc(C)cc4)c3=O)cc2)CC1 (stereo partly drawn) [Compound 253]	31.6 to 316
CCOC(=O)C(c1ccccc1)C1CCN(c2ccc(-n3ccn([C@@H](C)c4ccc(C)cc4)c3=O)cc2)CC1 (stereo partly drawn) [Compound 254]	316 to 3160
CCOC(=O)C(c1ccccc1)C1CCN(c2ccc(-n3ccn([C@H](C)c4ccc(Cl)cc4)c3=O)cc2)CC1 (stereo partly drawn) [Compound 255]	31.6 to 316
CCOC(=O)C(c1ccccc1)C1CCN(c2ccc(-n3ccn([C@@H](C)c4ccc(Cl)cc4)c3=O)cc2)CC1 (stereo partly drawn) [Compound 256]	316 to 3160
CCOC(=O)C(c1ccccc1)C1CCN(c2ccc(-n3ccn([C@H](C)c4cccc(OC)c4)c3=O)cc2)CC1 (stereo partly drawn) [Compound 257]	316 to 3160
CCOC(=O)C(c1ccccc1)C1CCN(c2ccc(-n3ccn([C@@H](C)c4cccc(OC)c4)c3=O)cc2)CC1 (stereo partly drawn) [Compound 258]	316 to 3160
CCOC(=O)C(c1ccccc1)C1CCN(c2ccc(-n3ccn([C@H](COC)c4ccccc4)c3=O)cc2)CC1 (stereo partly drawn) [Compound 259]	316 to 3160
